For series [1], the target named is T1, HCMV protease (Human cytomegalovirus, UniProt P16753).
T1 construct: UL80 gene from HCMV strain AD169, aa 1-256; made in house
Nature of the series: Inhibitory activity on HCMV protease (IC50). The series is classed as biochemical. The procedure:
The substrate of formula 1 was used to implement a 100 nM HCMV protease assay for routine screening of inhibitors. However rapid progress in the structure-activity relationship (SAR) studies eventually required a reduction of the enzyme concentration in order to differentiate between potent compounds. Indeed an IC50 value cannot be lower than half the enzyme concentration in the assay. Reducing the enzyme therefore permits accurate determination of the potency of active inhibitors.
The large reduction in Km was responsible for this substantial increase in activity and reflected the anticipated improvement in binding. The inhibitory activity of the N-terminal product ABz-Tbg-Tbg-Asn(Me)2 -Ala-OH was determined to establish if it could interfere with the course of the reaction.

The target in series [2] is T1, HCMV protease. Nature of the series: Mode of inhibition by Dixon-plot analysis with substrate 2. The class given is biochemical. The settings on record: Dixon-plot of initial rate of hydrolysis at different substrate 2 and inhibitor concentrations; substrate 0.4 to 2.5 Km. From the text:
FIG. 1 illustrates the inhibitory effect of a peptide inhibitor on HCMV protease at various concentrations of an improved substrate of this application.
The convenient use of fluorescence in this experiment was possible since a range of substrate concentrations from 0.4 to 2.5 Km was permitted. Substrate 1 could not be used in this application since its Km value is well above the inner filter limit.

A short description of series [3]: Solubility of substrate. The series is classed as physicochemical.
Series [4] is described as follows: Stability of 10 mM DMSO stock solutions at 4° C. The series is classed as physicochemical. The settings on record: 10 mM in DMSO, stored at 4° C. The procedure:
(§1) Stock solutions (10 mM) in DMSO of the compounds prepared in examples 2, 3, 4, 5 and 6 were stored at 4° C. […] Aliquoted samples of HCMV protease 50 μM (1.4 mg/ml) were kept at -80° C. in storing buffer without detectable loss of activity over an extended period of more than a year. The calculated molecular mass of wild-type HCMV protease was 28042 Da. The concentration of enzyme on which the calculations of the turnover number, kcat, and the specificity constant, kcat /Km, were derived was expressed in terms of total monomer concentration.

Series [5] deals with T1, HCMV protease. Nature of the series: HCMV protease fluorometric assay of substrate cleavage. The class given is biochemical. The settings on record: for kcat/Km, fold greater than for the substrate of formula 1 (unoptimized substrate): compared with substrate of formula 1. The method, then: (§2) Preparation of recombinant wild-type HCMV protease PCR amplified HCMV protease gene from genomic DNA (UL80 gene from HCMV strain AD169, aa 1-256) was cloned in the NdeI/BamHl restriction sites of the plasmid vector pET-17b and expressed in Escherichia Coli strain BL21(DE3)pLYSs. Following expression by induction with IPTG, cells were harvested and resuspended in lysis buffer (50 mM Tris/HCl pH 8.0, 1 mM EDTA, 1 mM DTT, 25 mM NaCl, and 1 mM PMSF) and sonicated for complete lysis and DNA breakage. Protease inclusion bodies were harvested by centrifugation. The harvested material was washed twice in lysis buffer containing 0.1% nonaethylene glycol octylphenyl ether (NP-40, Sigma Chemical Co.). Solubilization and denaturation of the harvested material were performed by resuspending the inclusion bodies in 100 mM Tris/HCl pH 8.0, 1 mM EDTA, 100 mM DTT, 50 mM NaCl, and 7 M urea and incubating at 37° C. for 2 h. After centrifugation to eliminate insoluble matter, the supernatant was extensively dialyzed in 50 mM MES pH 5.0, 0.1 mM EDTA, 10 mM DTT, and 7 M urea for cation exchange chromatography on Resource S column. The resulting pool of protease-containing fractions was then dialyzed in 25 mM Tris/HCl pH 7.8, 1 mM EDTA, and 1 M urea and diluted to ≈100 μg/ml to which 0.2 mM oxidized glutathione and 2 mM reduced glutathione were added. Incubation was performed overnight at 4° C. with gentle shaking and renaturation was then completed by extensive dialysis in 25 mM Tris/HCl pH 7.8, 1 mM EDTA, 1 mM DTT, and 100 mM NaCl followed by dialysis in storing buffer (20 mM acetate pH 5.0, 0.1 mM EDTA, 1 mM DTT, and 50 mM NaCl) before concentration of the sample to give the desired protease.
Stock solutions (10 mM) in DMSO of the compounds prepared in examples 2, 3, 4, 5 and 6 were stored at 4° C. […] Aliquoted samples of HCMV protease 50 μM (1.4 mg/ml) were kept at -80° C. in storing buffer without detectable loss of activity over an extended period of more than a year. The calculated molecular mass of wild-type HCMV protease was 28042 Da. […]

The test system of series [6] is HCMV protease. The settings on record: prior literature reports; cited from earlier work.
In series [7] the target is T1, HCMV protease. The series is classed as biochemical. The following applies: for Km / kcat / kcat/KM (specificity constant): 200-500 nM HCMV protease, determined by HPLC. The procedure: as §2, §1
HPLC analysis. Specificity constant, kcat /Km, and individual parameters kcat & Km for the peptide substrate of Example 2 were determined by HPLC monitoring of the initial rate of appearance of the N-terminus cleavage product at various substrate concentrations. Incubation buffer contained 50 mM Tris/HCl pH 8, 0.5 M Na2 SO4, 50 mM NaCl, 0.1 mM EDTA, 1 mM TCEP, 3% DMSO v/v, & 0.05% w/v casein to which 20-500 μM substrate was added. Following equilibration at 30° C., the reactions were initiated by addition of 50 nM HCMV protease (total monomer concentration) from a 2.5 μM stock solution in assay buffer and quenched at regular intervals with 1% TFA up to ≈25% total hydrolysis. The aliquots were injected on a C8 reversed-phase column using a linear gradient of acetonitrile in aqueous 3mM SDS containing 0.05% H3 PO4 (22 to 28% acetonitrile at 2 min, to 30% at 4 min, to 50% at 6 min at a constant flow rate of 4 ml/min). A calibration curve of the N-terminus product was used to estimate the extent of the conversion (retention time=2.7 min). The data was fitted to the non-linear regression analysis of the Michaelis-Menten equation by the kinetic software GRAFIT (Grafit, Erithacus Software Ltd, 1989-1992, Version 3.0, Leatherbarrow, R. J., London, U.K.). A similar protocol was adopted for the peptide substrates of Examples 5 and 6. In this case the enzyme concentration used was respectively 500 nM and 200 nM. The HPLC gradient was 25 to 38% acetonitrile at 11 min, to 100% at 13 min at a constant flow rate of 4 ml/min.

Square brackets hold non-standard residues; d marks the D form. Peptide text beside a SMILES is read from it. * marks the point of attachment. Tyr(3-NO2) = N[C@@H](Cc1ccc(O)c([N+](=O)[O-])c1)C(=O)O; AMC = Cc1cc(=O)oc2cc(N*)ccc12; Tle = CC(C)(C)[C@H](N)C(=O)O; 2Abz = Nc1ccccc1C(=O)O

T1 sequence (P16753 1-256): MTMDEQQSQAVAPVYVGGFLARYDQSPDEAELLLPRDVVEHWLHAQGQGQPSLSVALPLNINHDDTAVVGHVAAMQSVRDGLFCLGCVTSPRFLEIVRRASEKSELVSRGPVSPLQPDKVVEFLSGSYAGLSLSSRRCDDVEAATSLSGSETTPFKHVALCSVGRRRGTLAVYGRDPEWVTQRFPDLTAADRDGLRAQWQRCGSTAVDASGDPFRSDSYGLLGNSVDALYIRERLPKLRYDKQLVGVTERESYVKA

As for `C[C@H](NC(=O)[C@H](CC(=O)N(C)C)NC(=O)[C@@H](NC(=O)[C@@H](NC(=O)c1ccccc1N)C(C)(C)C)C(C)(C)C)C(=O)O` [ABz-Tbg-Tbg-Asn(Me)2 -Ala-OH] (H-[2Abz][Tle][Tle]D(NMe2)A-OH), in series [1], the IC50 (in general, the concentration at which inhibition is half-maximal) is above 75 µM.

As for `CC(NC(=O)[C@H](CC(=O)N(C)C)NC(=O)[C@@H](NC(=O)CC(C)(C)C)C(C)(C)C)C(=O)C(=O)NCc1ccccc1` (stereo partly drawn) [DATbg-Tbg-Asn(Me2)-Ala-CONHCH2Ph], the mode of inhibition entry in series [2] is on record as “competitive”.

`CC(C)C[C@H](NC(=O)[C@H](CCCNC(=N)N)NC(=O)[C@H](CO)NC(=O)[C@H](CO)NC(=O)[C@H](C)NC(=O)[C@H](CC(N)=O)NC(=O)[C@@H](NC(=O)[C@@H](NC(=O)c1ccccc1N)C(C)C)C(C)C)C(=O)N[C@@H](Cc1ccc(O)c([N+](=O)[O-])c1)C(=O)N[C@@H](CCCNC(=N)N)C(=O)O` [Substrate 1] (H-[2Abz]VVNASSRL[Tyr(3-NO2)]R-OH): in series [3], the solubility entry is “limited solubility”. In series [4], the “stability of compound in stock solution” value is reported as “stable for several weeks”.

Turning to `CC(C)C[C@H](NC(=O)[C@H](CCCNC(=N)N)NC(=O)[C@H](CO)NC(=O)[C@H](CO)NC(=O)[C@H](C)NC(=O)[C@H](CC(=O)N(C)C)NC(=O)[C@@H](NC(=O)[C@@H](NC(=O)c1ccccc1N)C(C)(C)C)C(C)(C)C)C(=O)N[C@@H](Cc1ccc(O)c([N+](=O)[O-])c1)C(=O)N[C@@H](CCCNC(=N)N)C(=O)O` [Substrate 2, ABz-Tbg-Tbg-Asn(Me)2 -Ala-Ser-Ser-Arg-Leu-Tyr(3-NO2)-Arg-OH] (H-[2Abz][Tle][Tle]D(NMe2)ASSRL[Tyr(3-NO2)]R-OH), the “stability of compound in stock solution” value in series [4] is reported as “stable for several weeks”. For the same compound, the “kcat/Km, fold greater than for the substrate of formula 1 (unoptimized substrate)” value in series [5] was 60 fold.

Regarding `CC(=O)N[C@H](C(=O)N[C@H](C(=O)N[C@@H](CC(=O)N(C)C)C(=O)N[C@@H](C)C(=O)Nc1ccc2c(C)cc(=O)oc2c1)C(C)(C)C)C(C)(C)C` [Substrate 3, N-Acetyl-Tbg-Tbg-Asn(Me)2 -Ala-AMC] (Ac-[Tle][Tle]D(NMe2)A-{AMC}), the “stability of compound in stock solution” value in series [4] is reported as “stable for several weeks”. In series [5], the “kcat/Km, fold greater than for the substrate of formula 1 (unoptimized substrate)” value came out at 10 fold. Further, in series [5] (compared with substrate of formula 2), the “kcat/Km, fold smaller than the substrate of formula 2” value came out at 6 fold.

In the case of ABz-GVVNA-SSRLAY(3-NO2)G, in series [6], the Km (as a rule, the concentration of substrate that gives half-maximal velocity) was 134 µM; the kcat (as a rule, the maximal rate divided by the concentration of active sites) was 0.37 s⁻¹; the kcat/KM (in general, the second-order rate constant that governs catalysis at low substrate concentration) was 2750 M⁻¹ s⁻¹.

As for DABCYL-RGVVNA-SSRLA-EDANS, the kcat/KM in series [6] was 796 M⁻¹ s⁻¹.

Regarding DABCYL-RRVVNA-S-Aba-RLD(EDANS)-NH2, in series [6], the Km was 3 µM.

With Y(3-NO2)GVVNA-SSRLA-ABz-K, the kcat/KM in series [6] was 3167 M⁻¹ s⁻¹.

For the compound “d-Biotin-Arg-Gly-Tbg-Tbg-Asn (Me) 2 -Ala-Ser-Ser-Arg-Leu-Ala-Tyr-NH2 [Substrate 5]”, in series [7], the Km came out at 19 µM, the catalytic constant (kcat) is 0.045 s⁻¹ and the “kcat/KM (specificity constant)” value was 2370 M⁻¹ s⁻¹.

As to “d-Biotin-Arg-Gly-Tbg-Tbg-Asn(Me)2 -Ala-Ser-Ser-Arg-Leu-Ala-Tyr(^125,)-NH2 [Substrate 13a]”, in series [7], the Michaelis-Menten constant (Km) is 19 µM, the kcat is 0.045 s⁻¹ and the “kcat/KM (specificity constant)” value worked out at 2370 M⁻¹ s⁻¹. For the same compound, the “kcat/KM, fold greater compared to the substrate of formula 12a” value in series [7] (as measured by HPLC) is 12 fold.

Take “d-Biotin-Arg-Gly-Val-Val-Asn-Ala-Ser-Ser-Arg-Leu-Ala-Tyr-NH2 [Substrate 4]”: in series [7], the Michaelis constant (Km) is 422 µM, the kcat amounted to 0.086 s⁻¹ and the “kcat/KM (specificity constant)” value turned out to be 205 M⁻¹ s⁻¹.

These data come from US6194143A, “Substrates for human cytomegalovirus protease” (Boehringer Ingelheim (Canada) Ltd., priority 1998, dated 2001).
